Assay results: patent US20250230193A1, “CYCLIC COMPOUND HAVING SELECTIVE KRAS INHIBITORY EFFECT ON HRAS AND NRAS” (CHUGAI SEIYAKU KABUSHIKI KAISHA, priority 2022, published 2025)
Where a SMILES comes first, the peptide text is derived from it. Bridges are numbered along the chain shown (N, C = ends). [ ]: non-standard residue; d: D form. The star is where a group is joined. hPhe(3-Cl-4-CF3) = N[C@@H](CCc1ccc(C(F)(F)F)c(Cl)c1)C(=O)O; NPrPhe(4-CF3) = CCCN[C@@H](Cc1ccc(C(F)(F)F)cc1)C(=O)O; NPrPhe(4-Me) = CCCN[C@@H](Cc1ccc(C)cc1)C(=O)O; NMeGly(cPent) = CN[C@H](C(=O)O)C1CCCC1; NMeD = CN[C@@H](CC(=O)O)C(=O)O; NMeL = CN[C@@H](CC(C)C)C(=O)O; Morpholide = C1CN(*)CCO1; NMeA = CN[C@@H](C)C(=O)O; Ac5c = NC1(C(=O)O)CCCC1; Aze = O=C(O)[C@@H]1CCN1; Abu = CC[C@H](N)C(=O)O; NEtG = CCNCC(=O)O; Sar = CNCC(=O)O

Tests used:
[1] = molecular target: GDP-bound HRAS wild-type protein (Homo sapiens, UniProt P01112); assay: Binding to HRAS by surface plasmon resonance (SPR), Single Cycle Kinetics; details: SPR
[2] = molecular target: GDP-bound NRAS wild-type protein (Homo sapiens, UniProt P01111); assay: Binding to NRAS by surface plasmon resonance (SPR), Single Cycle Kinetics; details: SPR
[3] = GDP-bound HRAS wild-type vs GDP-bound KRAS wild-type
[4] = GDP-bound NRAS wild-type vs GDP-bound KRAS wild-type

Sequence of GDP-bound HRAS wild-type protein (P01112 whole entry): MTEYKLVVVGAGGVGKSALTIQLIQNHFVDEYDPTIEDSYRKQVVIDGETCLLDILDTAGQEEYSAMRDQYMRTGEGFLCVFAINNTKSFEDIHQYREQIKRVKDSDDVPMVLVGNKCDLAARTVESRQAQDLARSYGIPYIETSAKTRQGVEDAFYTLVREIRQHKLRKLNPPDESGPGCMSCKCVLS
Sequence of GDP-bound NRAS wild-type protein (P01111 whole entry): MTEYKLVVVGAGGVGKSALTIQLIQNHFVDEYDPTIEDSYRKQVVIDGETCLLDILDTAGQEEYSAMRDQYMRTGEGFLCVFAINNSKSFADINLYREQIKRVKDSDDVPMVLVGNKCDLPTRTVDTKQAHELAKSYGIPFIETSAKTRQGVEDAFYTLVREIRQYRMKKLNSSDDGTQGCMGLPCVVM

CCO[C@@H]1C[C@H]2C(=O)NC3(CCC3)C(=O)N(C)[C@@H](C3CCCC3)C(=O)N(C)[C@H](C(=O)N3CCOCC3)CC(=O)N(C)[C@@H](CC3CCC3)C(=O)N[C@@H]([C@@H](C)CC)C(=O)N(C)CC(=O)N(C)[C@H]3CCCCCN(C3=O)[C@@H](Cc3ccc(C(F)(F)F)cc3)C(=O)N(C)CC(=O)N[C@@H](CCc3cc(F)c(C(F)(F)F)c(F)c3)C(=O)N2C1 [PP0683]
HRAS/KRAS (ratio of KD value with respect to GDP-bound HRAS wild-type protein to KD value with respect to KRAS) ([1]; KD ratio HRAS/KRAS): B (a compound having 3 or more and less than 10 is denoted as B) | NRAS/KRAS (ratio of KD value with respect to GDP-bound NRAS wild-type protein to KD value with respect to KRAS) ([2]; KD ratio NRAS/KRAS): B (a compound having 3 or more and less than 10 is denoted as B)

CC[C@H](C)[C@@H]1NC(=O)[C@H](CC)N(C)C(=O)C[C@@H](C(=O)N(C)C)N(C)C(=O)[C@H](C2CCCC2)N(C)C(=O)C2(CCCC2)N(C)C(=O)[C@@H]2C[C@@H](C)CN2C(=O)[C@H](CCc2cc(F)c(C(F)(F)F)c(F)c2)NC(=O)CN(C)C(=O)[C@H](Cc2ccc(C)cc2)N2CC/C=C\C[C@@H](C2=O)N(C)C(=O)[C@@H]2CCCN2C1=O [PP1814]
HRAS/KRAS (ratio of KD value for HRAS to KD value for KRAS) ([1]; KD ratio, GDP-bound HRAS wild-type vs GDP-bound KRAS wild-type): A (a compound having 10 or more and less than 20 is denoted as A) | NRAS/KRAS (ratio of KD value for NRAS to KD value for KRAS) ([2]; KD ratio, GDP-bound NRAS wild-type vs GDP-bound KRAS wild-type): A (a compound having 10 or more and less than 20 is denoted as A)

CCCOC[C@H]1C(=O)N[C@@H]([C@@H](C)CC)C(=O)N(C)CC(=O)N(C)[C@H]2C/C=C\CCN(C2=O)[C@@H](Cc2ccc(C(F)(F)F)cc2)C(=O)N(C)CC(=O)N[C@@H](CCc2cc(F)c(C(F)(F)F)c(F)c2)C(=O)N2C[C@@H](C)C[C@H]2C(=O)NC2(CC(C)(C)C2)C(=O)N(C)[C@@H](C2CCCC2)C(=O)N(C)[C@H](C(=O)N(C)CC)CC(=O)N1C [PP2043]
HRAS/KRAS (ratio of KD value with respect to HRAS to KD value with respect to KRAS) [1, 3]: A (a compound having 10 or more and less than 20 is denoted as A) | NRAS/KRAS (ratio of KD value with respect to NRAS to KD value with respect to KRAS) [2, 4]: A (a compound having 10 or more and less than 20 is denoted as A)

CCCN1C(=O)[C@@H]2CCN2C(=O)[C@H](C)N(C)C(=O)[C@H](CC)NC(=O)[C@H](CC(C)C)N(C)C(=O)C[C@@H](C(=O)N2CCOCC2)N(C)C(=O)[C@H](C2CCCC2)N(C)C(=O)C2(CCCC2)NC(=O)[C@@H]2CCCN2C(=O)[C@H](CCc2ccc(C(F)(F)F)c(Cl)c2)NC(=O)CN(C)C(=O)[C@@H]1Cc1ccc(C(F)(F)F)cc1 [PP0269] ([NMeL][Abu][NMeA][Aze][NPrPhe(4-CF3)][Sar][hPhe(3-Cl-4-CF3)]P[Ac5c][NMeGly(cPent)][NMeD]-Morpholide; lactam N-11)
HRAS/KRAS (ratio of KD for GDP-bound HRAS wild-type to KD for KRAS) ([1]; KD ratio HRAS/KRAS): B (a compound having 3 or more and less than 10 is denoted as B) | NRAS/KRAS (ratio of KD for GDP-bound NRAS wild-type to KD for KRAS) ([2]; KD ratio NRAS/KRAS): C (A compound having a KD ratio of 0.1 or more and less than 3 is denoted as C)

CCCN1C(=O)CN(CC)C(=O)CN(C)C(=O)[C@H]([C@@H](C)CC)NC(=O)[C@H](CC(C)C)N(C)C(=O)C[C@@H](C(=O)N2CCOCC2)N(C)C(=O)[C@H](C2CCCC2)N(C)C(=O)C2(CCCC2)NC(=O)[C@@H]2CCCN2C(=O)[C@H](CCc2ccc(C(F)(F)F)c(Cl)c2)NC(=O)CN(C)C(=O)[C@@H]1Cc1ccc(C)cc1 [PP0065] ([NMeL]I[Sar][NEtG][NPrPhe(4-Me)][Sar][hPhe(3-Cl-4-CF3)]P[Ac5c][NMeGly(cPent)][NMeD]-Morpholide; lactam N-11)
HRAS/KRAS (ratio of KD for GDP-bound HRAS wild-type to KD for KRAS) ([1]; KD ratio HRAS/KRAS): C (A compound having a KD ratio of 0.1 or more and less than 3 is denoted as C) | NRAS/KRAS (ratio of KD for GDP-bound NRAS wild-type to KD for KRAS) ([2]; KD ratio NRAS/KRAS): C (A compound having a KD ratio of 0.1 or more and less than 3 is denoted as C)

CCC[C@H]1C(=O)N[C@@H](CC(C)C)C(=O)N(CC)CC(=O)N(C)[C@H]2C/C=C\CCN(C2=O)[C@@H](Cc2ccc(C)cc2)C(=O)N(C)CC(=O)N[C@@H](CCc2cc(F)c(C(F)(F)F)c(F)c2)C(=O)N2C[C@H](OCC)C[C@H]2C(=O)NC2(CC(C)(C)C2)C(=O)N(C)[C@@H](C2CCCC2)C(=O)N(C)[C@H](C(=O)N(C)C)CC(=O)N1C [PP2516]
HRAS/KRAS (ratio of KD value with respect to HRAS to KD value with respect to KRAS) [1, 3]: B (a compound having 3 or more and less than 10 is denoted as B) | NRAS/KRAS (ratio of KD value with respect to NRAS to KD value with respect to KRAS) [2, 4]: A (a compound having 10 or more and less than 20 is denoted as A)

CCOC[C@H]1C(=O)N[C@@H]([C@@H](C)CC)C(=O)N(C)CC(=O)N(C)[C@H]2C/C=C\CCN(C2=O)[C@@H](CC2CCCCC2)C(=O)N(C)CC(=O)N[C@@H](CCc2ccc(C(F)(F)F)c(OC)c2)C(=O)N2C[C@@H](C)C[C@H]2C(=O)N(C)C2(CCC2)C(=O)N(C)[C@@H](C2CCCC2)C(=O)N(C)[C@H](C(=O)N(C)C)CC(=O)N1C [PP2371]
HRAS/KRAS (ratio of KD value with respect to HRAS to KD value with respect to KRAS) [1, 3]: B (a compound having 3 or more and less than 10 is denoted as B) | NRAS/KRAS (ratio of KD value with respect to NRAS to KD value with respect to KRAS) [2, 4]: A (a compound having 10 or more and less than 20 is denoted as A)
